Each block holds one compound with its values, some of them ahead of it. Calls of active or inactive are those of the source.
Assays:
Caspase-3 = molecular target: T1, Caspase-3 (Homo sapiens, UniProt P42574); assay type: functional;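 note: Dose-response selectivity test against caspase-3 for candidate inhibitors of sentrin-specific proteases (SENPs)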
T1 sequence (P42574 whole entry): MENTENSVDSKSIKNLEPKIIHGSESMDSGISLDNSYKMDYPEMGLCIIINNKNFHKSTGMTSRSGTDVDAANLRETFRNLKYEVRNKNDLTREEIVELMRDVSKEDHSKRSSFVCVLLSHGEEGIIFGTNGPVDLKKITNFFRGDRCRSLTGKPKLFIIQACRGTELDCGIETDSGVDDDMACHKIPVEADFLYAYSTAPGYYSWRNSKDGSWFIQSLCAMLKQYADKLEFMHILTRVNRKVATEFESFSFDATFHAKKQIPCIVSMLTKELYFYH

[1] = molecular target: T2, Sentrin-specific protease 7 (Homo sapiens, UniProt Q9BQF6); assay type: functional;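 note: Luminescence-based dose-response confirmation of ultra-high-throughput screening hits, measuring inhibition of SENP7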
T2 sequence (Q9BQF6 whole entry): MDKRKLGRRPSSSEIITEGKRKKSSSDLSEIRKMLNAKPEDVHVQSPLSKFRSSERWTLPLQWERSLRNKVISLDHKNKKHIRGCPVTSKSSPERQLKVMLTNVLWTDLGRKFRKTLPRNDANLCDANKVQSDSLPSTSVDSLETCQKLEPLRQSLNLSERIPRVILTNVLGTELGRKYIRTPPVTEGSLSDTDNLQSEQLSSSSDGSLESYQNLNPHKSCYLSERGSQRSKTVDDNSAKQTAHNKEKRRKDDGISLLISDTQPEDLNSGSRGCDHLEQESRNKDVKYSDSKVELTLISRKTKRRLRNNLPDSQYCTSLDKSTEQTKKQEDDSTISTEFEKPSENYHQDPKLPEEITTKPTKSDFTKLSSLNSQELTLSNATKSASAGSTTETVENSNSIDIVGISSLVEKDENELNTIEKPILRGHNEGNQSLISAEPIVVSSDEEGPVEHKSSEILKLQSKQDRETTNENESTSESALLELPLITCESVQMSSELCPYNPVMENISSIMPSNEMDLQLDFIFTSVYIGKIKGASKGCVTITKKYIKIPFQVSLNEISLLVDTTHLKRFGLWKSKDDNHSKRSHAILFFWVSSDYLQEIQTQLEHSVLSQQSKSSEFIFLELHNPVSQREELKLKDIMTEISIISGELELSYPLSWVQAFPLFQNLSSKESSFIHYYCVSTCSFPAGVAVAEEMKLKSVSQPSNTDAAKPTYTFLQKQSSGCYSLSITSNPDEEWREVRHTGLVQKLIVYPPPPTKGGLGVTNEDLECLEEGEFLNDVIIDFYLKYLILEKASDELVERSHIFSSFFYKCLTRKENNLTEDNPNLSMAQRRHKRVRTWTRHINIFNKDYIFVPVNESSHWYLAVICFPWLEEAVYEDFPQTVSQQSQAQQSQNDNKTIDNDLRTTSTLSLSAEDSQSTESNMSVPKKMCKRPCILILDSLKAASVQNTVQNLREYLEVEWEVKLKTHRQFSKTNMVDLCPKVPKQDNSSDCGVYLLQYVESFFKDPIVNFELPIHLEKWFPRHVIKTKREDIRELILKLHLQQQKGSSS

[2] = molecular target: T3, Heat shock factor protein 1 (Mus musculus, UniProt P38532); assay: enhancement of HSF1-driven luciferase signal – cell-based, NIH3T3, luminescence, dose retest, confirmation (AID 435004); assay type: functional;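 note: stress induced by proteasome inhibitor MG132 added 30 min after compound; luciferase reporter driven by HSF1 response element in NIH3T3 cells; actives raise luminescence as potentiators of the MG132 stress response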
T3 sequence (P38532 whole entry): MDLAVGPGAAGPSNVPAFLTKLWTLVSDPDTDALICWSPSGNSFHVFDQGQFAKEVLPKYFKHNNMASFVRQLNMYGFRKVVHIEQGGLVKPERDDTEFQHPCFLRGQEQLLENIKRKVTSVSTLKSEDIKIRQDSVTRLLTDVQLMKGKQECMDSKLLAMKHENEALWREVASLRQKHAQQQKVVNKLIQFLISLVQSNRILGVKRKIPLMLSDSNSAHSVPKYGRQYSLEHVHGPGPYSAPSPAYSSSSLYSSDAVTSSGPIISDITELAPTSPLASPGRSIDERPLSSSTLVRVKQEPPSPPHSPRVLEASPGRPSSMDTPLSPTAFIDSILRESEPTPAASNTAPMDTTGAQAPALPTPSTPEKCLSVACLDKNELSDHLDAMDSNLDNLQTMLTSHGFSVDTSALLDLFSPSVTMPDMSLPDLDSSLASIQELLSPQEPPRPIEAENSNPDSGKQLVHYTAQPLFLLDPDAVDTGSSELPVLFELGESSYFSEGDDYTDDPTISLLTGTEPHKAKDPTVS

[3] = molecular target: T4, Sentrin-specific protease 6 (Homo sapiens, UniProt Q9GZR1); assay type: functional;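 note: Luminescence-based dose-response confirmatory assay of SENP6 inhibition, following up an ultra-high-throughput screen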
T4 sequence (Q9GZR1 whole entry): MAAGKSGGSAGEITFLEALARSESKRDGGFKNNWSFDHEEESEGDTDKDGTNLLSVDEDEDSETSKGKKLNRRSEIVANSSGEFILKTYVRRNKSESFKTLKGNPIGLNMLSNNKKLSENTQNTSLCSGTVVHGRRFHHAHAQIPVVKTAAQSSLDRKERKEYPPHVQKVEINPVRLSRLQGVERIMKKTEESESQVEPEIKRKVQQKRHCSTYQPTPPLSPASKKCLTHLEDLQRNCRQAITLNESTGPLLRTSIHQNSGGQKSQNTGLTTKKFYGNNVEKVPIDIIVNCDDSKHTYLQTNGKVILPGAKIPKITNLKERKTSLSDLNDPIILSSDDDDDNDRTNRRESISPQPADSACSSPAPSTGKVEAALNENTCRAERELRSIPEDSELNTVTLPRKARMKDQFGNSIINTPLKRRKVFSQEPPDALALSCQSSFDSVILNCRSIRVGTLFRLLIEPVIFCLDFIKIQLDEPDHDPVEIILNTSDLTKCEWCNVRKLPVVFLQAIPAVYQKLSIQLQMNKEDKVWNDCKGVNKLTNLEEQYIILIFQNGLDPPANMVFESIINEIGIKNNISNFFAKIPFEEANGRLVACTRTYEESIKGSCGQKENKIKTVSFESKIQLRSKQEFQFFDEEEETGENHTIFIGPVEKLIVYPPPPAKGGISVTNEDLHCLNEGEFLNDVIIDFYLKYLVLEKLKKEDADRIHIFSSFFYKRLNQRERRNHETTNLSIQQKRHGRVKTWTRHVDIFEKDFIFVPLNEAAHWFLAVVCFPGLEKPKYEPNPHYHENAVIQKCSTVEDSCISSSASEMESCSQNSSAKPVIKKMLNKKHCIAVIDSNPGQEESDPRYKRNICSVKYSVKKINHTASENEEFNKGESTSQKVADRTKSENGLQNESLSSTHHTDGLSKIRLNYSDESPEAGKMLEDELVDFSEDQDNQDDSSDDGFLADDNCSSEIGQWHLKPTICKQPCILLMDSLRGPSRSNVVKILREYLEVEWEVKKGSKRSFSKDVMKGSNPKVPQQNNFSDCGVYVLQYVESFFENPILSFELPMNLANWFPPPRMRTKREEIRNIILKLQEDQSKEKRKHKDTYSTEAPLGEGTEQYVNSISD

[4] = molecular target: T5, Sentrin-specific protease 8 (Homo sapiens, UniProt Q96LD8); assay type: functional;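 note: luminescence read-out of SENP8 inhibition, dose-response confirmation following an ultra-high-throughput screen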
T5 sequence (Q96LD8 whole entry): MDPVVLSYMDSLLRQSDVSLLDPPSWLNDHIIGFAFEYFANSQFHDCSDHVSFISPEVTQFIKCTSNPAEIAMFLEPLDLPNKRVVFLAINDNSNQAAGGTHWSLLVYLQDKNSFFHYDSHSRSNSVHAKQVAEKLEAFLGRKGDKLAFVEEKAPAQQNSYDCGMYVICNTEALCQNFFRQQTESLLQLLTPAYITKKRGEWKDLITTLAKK

[5] = molecular target: T6, Oxysterols receptor LXR-beta (Homo sapiens, UniProt P55055); assay type: functional, cell-based;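 note: Cell-based luminescence dose-response assay of agonist activity at LXR, run as a confirmatory counterscreen to a daf-12 agonist screen; HEK293 cells with Gal4-LXR fusion and GAL4-driven luciferase reporter; agonist potency from rising luciferase signal of a Gal4-LXR reporter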
T6 sequence (P55055 whole entry): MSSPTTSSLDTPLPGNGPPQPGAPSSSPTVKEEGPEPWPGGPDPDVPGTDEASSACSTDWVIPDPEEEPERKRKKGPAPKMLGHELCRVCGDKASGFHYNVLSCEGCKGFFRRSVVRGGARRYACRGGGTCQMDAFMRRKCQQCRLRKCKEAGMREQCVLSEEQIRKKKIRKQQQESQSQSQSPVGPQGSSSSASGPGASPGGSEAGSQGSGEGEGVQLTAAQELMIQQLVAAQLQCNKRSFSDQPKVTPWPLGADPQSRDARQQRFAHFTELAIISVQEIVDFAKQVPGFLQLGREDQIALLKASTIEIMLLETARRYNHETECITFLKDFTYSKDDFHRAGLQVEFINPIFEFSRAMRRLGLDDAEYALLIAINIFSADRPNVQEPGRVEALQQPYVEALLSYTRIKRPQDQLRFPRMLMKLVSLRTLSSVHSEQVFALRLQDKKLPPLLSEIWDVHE

Transthyretin = Transthyretin (Homo sapiens, UniProt P02766); assay: Luminescence-based cell-based high throughput dose response assay to identify activators of Transthyretin (TTR) transcription.; assay type: functional
Paired box protein Pax-8 = Paired box protein Pax-8 (Homo sapiens, UniProt Q06710); assay: PAX8 transcriptional activity inhibition in RMG-I – RMG-I cells, luciferase, cherry-pick, dose response (AID 687027); assay type: functional, cell-based;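 note: luciferase reporter driven by Pax8 target thyroperoxidase promoter measured by SteadyGlo luminescence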
[6] = reduced cellular PGC1a acetyl-lysine signal – cell-based, cherry-picked samples, dose response (AID 720514); assay type: functional;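 note: potency may reflect raised or lowered acetylation signal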
[7] = blockers of HIV-1 envelope-mediated cell-cell fusion – cherry-pick, dose response (AID 652057); assay type: functional, cell-based
[8] = blockers of HIV-1 ZM109 envelope-driven cell-cell fusion – HeLa effector, CEM target cells, luciferase, cherry-pick, dose response (AID 652058); assay type: functional, cell-based;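 note: luciferase signal from HIV-1 Env mediated cell-cell fusion of effector and target cells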
[9] = HIV-1 AD8 envelope cell-cell fusion blockers – cherry-pick, dose response (AID 652062); assay type: functional, cell-based;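 note: luciferase signal from cell-cell fusion driven by HIV-1 clade B AD8 Env; potency is for inhibitors of fusion seen as a drop in luminescence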
[10] = growth inhibition of yeast DHODH-expressing 3D7 parasites – SYBR Green, dry powder samples, dose response (AID 1159570); assay type: functional, cell-based;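 note: parasite growth measured after 72 hours of compound exposure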
[11] = P. falciparum Dd2 growth inhibitors, dose response, SYBR Green, cherry-picked samples (AID 1159567); assay type: functional, cell-based
[12] = Dd2 malaria parasite growth inhibition potency – SYBR Green, dry powder samples, dose response (AID 1159566); assay type: functional, cell-based;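 note: potency for growth inhibition with lower SYBR green DNA signal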
[13] = growth inhibition of PfATP4-mutant resistant parasites – NITD609-resistant line, SYBR Green, dry powder, dose response (AID 1159571); assay type: functional, cell-based;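 note: parasites synchronized at ring stage by sorbitol before testing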
[14] = molecular target: Heat shock protein HSP 90-alpha (Homo sapiens, UniProt P07900); assay type: functional, organism-based
[15] = reduction of Shn3 3'UTR-driven luciferase in osteoblasts – cell-based, Clone20 osteoblasts, firefly luciferase, cherry-picked, dose response (AID 624132); assay type: functional;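 note: firefly luciferase luminescence from reporter carrying the Shn3 3'UTR in osteoblasts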
[16] = non-specific 3'UTR reporter inhibition in Clone20-Shn3RL – cell-based, Renilla luciferase, cherry-picked, counter-screen for Shn3 inhibitor project, dose response (AID 624133); assay type: functional
[17] = Fluorescence-based cell-based high throughput dose response assay for inhibitors of the interaction of nucleotide-binding oligomerization domain containing 2 (NOD2) and the receptor-interacting serine-threonine kinase 2 (RIPK2).; assay type: functional; details: Homo sapiens
HeLa = assay: viability loss in HeLa cells – cell-based, ATP luminescence, cherry-pick samples, cytotoxicity control, dose response (AID 687004); assay type: functional; details: Homo sapiens

Chain of Paired box protein Pax-8 (Q06710 whole entry): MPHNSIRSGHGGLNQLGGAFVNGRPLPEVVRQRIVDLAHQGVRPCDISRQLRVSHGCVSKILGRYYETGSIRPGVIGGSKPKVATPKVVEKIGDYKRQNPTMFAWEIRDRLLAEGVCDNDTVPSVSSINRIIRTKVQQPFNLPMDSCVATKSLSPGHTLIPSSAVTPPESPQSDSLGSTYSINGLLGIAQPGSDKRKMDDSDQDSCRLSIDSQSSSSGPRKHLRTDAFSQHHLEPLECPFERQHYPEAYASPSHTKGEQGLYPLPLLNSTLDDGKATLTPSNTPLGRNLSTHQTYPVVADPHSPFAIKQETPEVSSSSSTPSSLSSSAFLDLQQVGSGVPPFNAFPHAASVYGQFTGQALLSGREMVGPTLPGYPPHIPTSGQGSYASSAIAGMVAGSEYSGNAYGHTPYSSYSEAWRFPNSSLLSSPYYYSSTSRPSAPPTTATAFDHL

SMILES: c1ccc(N2CC3CCc4ccccc4C3=N2)cc1 (stereo not drawn)
IC50 (Caspase-3): 23.3 µM (active)
IC50 [1]: 5.67 µM (active)
EC50 [2]: 114 µM (active)
IC50 [3]: 30.4 µM (active)
IC50 [4]: 58.4 µM (active)
EC50 [5]: > 67.5 µM (inactive)
EC50 (cells): > 67.5 µM (inactive)

EC50 (Transthyretin): > 167 µM (inactive)
SMILES: CN(Cc1ccccc1)C(=O)c1[nH]cnc1C(=O)NCC(=O)OC(C)(C)C

SMILES: Cc1ccc(S(=O)(=O)N(C)C[C@@H]2Oc3cc(C#Cc4ccncc4)ccc3S(=O)(=O)N([C@@H](C)CO)C[C@H]2C)cc1
AC50 (Paired box protein Pax-8): 2.51 µM (active)
AC50 [6]: 2.39 µM (active)

SMILES: COc1ccc(S(=O)(=O)Nc2ccc3c(c2)CC(=O)N([C@@H](C)CO)C[C@H](C)[C@H](CN(C)S(=O)(=O)c2ccc(C)cc2)O3)cc1
AC50 [7]: 3.56 µM (active)
AC50 [8]: 23.8 µM (active)
AC50 [9]: 33.9 µM (active)
AC50 [10]: 0.928 µM (active)
AC50 [11]: 1.7 µM (active)
AC50 [12]: 0.563 µM (active)
AC50 [13]: 0.553 µM (active)

SMILES: CC(=O)OC1(C)CC(C)C(=O)C(C(O)CC2CC(=O)NC(=O)C2)C1 (stereo not drawn)
AC50 [14]: < 0.195 µM (active)
AC50 [15]: < 0.26 µM (active)
AC50 [16]: < 0.26 µM (active)
IC50 [17]: 49.8 µM (inactive)
AC50 (HeLa): 14.5 µM (active)
AC50 [6]: < 0.16 µM (active)
